Experimental data: PubChem BioAssay AID1918998 (Molecular Pharmacology Branch, DTP, NCI, 2023)

Test system: 521955-158-R2-J5-PDC complex spheroid growth
Experiment: Anticancer human tumor 521955-158-R2-J5-PDC patient-derived pancreatic carcinoma cell line growth inhibition [AhR]
Settings: for IC50: curve of first compound; for viability, T/C: stronger effect = lower value
Procedure, shortened: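 Spheroids combined tumor cells with HUVEC endothelial cells and human MSCs as stroma. AhR antagonists were paired with standard or investigational drugs, each dosed in half-log steps down from near clinical Cmax, or from 10 microM where Cmax was unknown.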

[1] = second compound 0.1 µM, first compound 0.0316 µM
[2] = second compound 0.1 µM, first compound 0.1 µM
[3] = second compound 0.1 µM, first compound 0.316 µM
[4] = second compound 0.1 µM, first compound 1 µM
[5] = second compound 0.1 µM, first compound 3.16 µM
[6] = second compound 0.1 µM, first compound 10 µM
[7] = second compound 0.316 µM, first compound 0.0316 µM
[8] = second compound 0.316 µM, first compound 0.1 µM
[9] = second compound 0.316 µM, first compound 0.316 µM
[10] = second compound 0.316 µM, first compound 1 µM
[11] = second compound 0.316 µM, first compound 3.16 µM
[12] = second compound 0.316 µM, first compound 10 µM
[13] = second compound 1 µM, first compound 0.0316 µM
[14] = second compound 1 µM, first compound 0.1 µM
[15] = second compound 1 µM, first compound 0.316 µM
[16] = second compound 1 µM, first compound 1 µM
[17] = second compound 1 µM, first compound 3.16 µM
[18] = second compound 1 µM, first compound 10 µM
[19] = second compound 3.16 µM, first compound 0.0316 µM
[20] = second compound 3.16 µM, first compound 0.1 µM
[21] = second compound 3.16 µM, first compound 0.316 µM
[22] = second compound 3.16 µM, first compound 1 µM
[23] = second compound 3.16 µM, first compound 3.16 µM
[24] = second compound 3.16 µM, first compound 10 µM
[25] = second compound 10 µM, first compound 0.0316 µM
[26] = second compound 10 µM, first compound 0.1 µM
[27] = second compound 10 µM, first compound 0.316 µM
[28] = second compound 10 µM, first compound 1 µM
[29] = second compound 10 µM, first compound 3.16 µM
[30] = second compound 10 µM, first compound 10 µM
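Throughout, for viability, T/C: spheroids mix tumor cells with HUVEC endothelium and human MSC stroma; luminescence taken as viability surrogate after a week of drug exposure.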

SMILES: CCc1c2c(nc3ccc(O)cc13)-c1cc3c(c(=O)n1C2)COC(=O)[C@]3(O)CC + Cc1ccccc1N=Nc1ccc(NC(=O)c2ccnn2C)c(C)c1
- IC50 (second compound 0.1 µM): 4.12 nM
- IC50 (second compound 0.316 µM): 4.8 nM
- IC50 (second compound 1 µM): 4.66 nM
- IC50 (second compound 3.16 µM): 6.4 nM
- IC50 (second compound 10 µM): 7.1 nM
- viability, T/C (second compound 0.1 µM, first compound 0.000949 µM): 65.2%
- viability, T/C (second compound 0.1 µM, first compound 0.003 µM): 56%
- viability, T/C (second compound 0.1 µM, first compound 0.00949 µM): 36.5%
- viability, T/C (second compound 0.1 µM, first compound 0.03 µM): 27%
- viability, T/C (second compound 0.1 µM, first compound 0.0949 µM): 18.6%
- viability, T/C (second compound 0.1 µM, first compound 0.3 µM): 13.8%
- viability, T/C (second compound 0.316 µM, first compound 0.000949 µM): 74.3%
- viability, T/C (second compound 0.316 µM, first compound 0.003 µM): 60.9%
- viability, T/C (second compound 0.316 µM, first compound 0.00949 µM): 34.1%
- viability, T/C (second compound 0.316 µM, first compound 0.03 µM): 22.3%
- viability, T/C (second compound 0.316 µM, first compound 0.0949 µM): 17%
- viability, T/C (second compound 0.316 µM, first compound 0.3 µM): 12.9%
- viability, T/C (second compound 1 µM, first compound 0.000949 µM): 91.7%
- viability, T/C (second compound 1 µM, first compound 0.003 µM): 61.8%
- viability, T/C (second compound 1 µM, first compound 0.00949 µM): 30.2%
- viability, T/C (second compound 1 µM, first compound 0.03 µM): 23.2%
- viability, T/C (second compound 1 µM, first compound 0.0949 µM): 17.5%
- viability, T/C (second compound 1 µM, first compound 0.3 µM): 14.3%
- viability, T/C (second compound 3.16 µM, first compound 0.000949 µM): 95.3%
- viability, T/C (second compound 3.16 µM, first compound 0.003 µM): 78.3%
- viability, T/C (second compound 3.16 µM, first compound 0.00949 µM): 33.9%
- viability, T/C (second compound 3.16 µM, first compound 0.03 µM): 23.5%
- viability, T/C (second compound 3.16 µM, first compound 0.0949 µM): 15.3%
- viability, T/C (second compound 3.16 µM, first compound 0.3 µM): 11.7%
- viability, T/C (second compound 10 µM, first compound 0.000949 µM): 114%
- viability, T/C (second compound 10 µM, first compound 0.003 µM): 89.8%
- viability, T/C (second compound 10 µM, first compound 0.00949 µM): 35.1%
- viability, T/C (second compound 10 µM, first compound 0.03 µM): 24.1%
- viability, T/C (second compound 10 µM, first compound 0.0949 µM): 16.2%
- viability, T/C (second compound 10 µM, first compound 0.3 µM): 11.5%

SMILES: Nc1ccccc1NC(=O)c1ccc(CNC(=O)OCc2cccnc2)cc1 + Cc1ccccc1N=Nc1ccc(NC(=O)c2ccnn2C)c(C)c1
- IC50 (second compound 0.1 µM): 5030 nM
- IC50 (second compound 0.316 µM): 5290 nM
- IC50 (second compound 1 µM): 5680 nM
- IC50 (second compound 3.16 µM): 6930 nM
- IC50 (second compound 10 µM): 7200 nM
- viability, T/C [1]: 121%
- viability, T/C [2]: 129%
- viability, T/C [3]: 130%
- viability, T/C [4]: 104%
- viability, T/C [5]: 64.6%
- viability, T/C [6]: 29.6%
- viability, T/C [7]: 95.2%
- viability, T/C [8]: 137%
- viability, T/C [9]: 147%
- viability, T/C [10]: 109%
- viability, T/C [11]: 69.8%
- viability, T/C [12]: 26.4%
- viability, T/C [13]: 135%
- viability, T/C [14]: 154%
- viability, T/C [15]: 155%
- viability, T/C [16]: 116%
- viability, T/C [17]: 67.5%
- viability, T/C [18]: 34.4%
- viability, T/C [19]: 141%
- viability, T/C [20]: 164%
- viability, T/C [21]: 154%
- viability, T/C [22]: 131%
- viability, T/C [23]: 71.4%
- viability, T/C [24]: 40%
- viability, T/C [25]: 165%
- viability, T/C [26]: 168%
- viability, T/C [27]: 152%
- viability, T/C [28]: 129%
- viability, T/C [29]: 78.1%
- viability, T/C [30]: 38.7%

SMILES: Nc1ccn(C2OC(CO)C(O)C2(F)F)c(=O)n1 (stereo not given) + Cc1ccccc1N=Nc1ccc(NC(=O)c2ccnn2C)c(C)c1
- IC50 (second compound 0.1 µM): 267 nM
- IC50 (second compound 0.316 µM): 501 nM
- IC50 (second compound 1 µM): 448 nM
- IC50 (second compound 3.16 µM): 405 nM
- IC50 (second compound 10 µM): 338 nM
- viability, T/C [1]: 76.7%
- viability, T/C [2]: 52.4%
- viability, T/C [3]: 57%
- viability, T/C [4]: 28.4%
- viability, T/C [5]: 13.3%
- viability, T/C [6]: 14.5%
- viability, T/C [7]: 66.8%
- viability, T/C [8]: 52.7%
- viability, T/C [9]: 85.8%
- viability, T/C [10]: 22.3%
- viability, T/C [11]: 13.5%
- viability, T/C [12]: 12.5%
- viability, T/C [13]: 66.5%
- viability, T/C [14]: 52.5%
- viability, T/C [15]: 71.2%
- viability, T/C [16]: 19.2%
- viability, T/C [17]: 13.5%
- viability, T/C [18]: 12.4%
- viability, T/C [19]: 91.2%
- viability, T/C [20]: 69.1%
- viability, T/C [21]: 62.3%
- viability, T/C [22]: 21.8%
- viability, T/C [23]: 13.2%
- viability, T/C [24]: 14.4%
- viability, T/C [25]: 107%
- viability, T/C [26]: 93.8%
- viability, T/C [27]: 52.1%
- viability, T/C [28]: 21.6%
- viability, T/C [29]: 17.8%
- viability, T/C [30]: 15.6%

SMILES: O=C(c1cc(Cc2n[nH]c(=O)c3ccccc23)ccc1F)N1CCN(C(=O)C2CC2)CC1 + Cc1ccccc1N=Nc1ccc(NC(=O)c2ccnn2C)c(C)c1
- IC50 (second compound 0.1 µM): > 10000 nM
- IC50 (second compound 0.316 µM): > 10000 nM
- IC50 (second compound 1 µM): > 10000 nM
- IC50 (second compound 3.16 µM): > 10000 nM
- IC50 (second compound 10 µM): > 10000 nM
- viability, T/C [1]: 101%
- viability, T/C [2]: 83.6%
- viability, T/C [3]: 98.5%
- viability, T/C [4]: 104%
- viability, T/C [5]: 73.6%
- viability, T/C [6]: 63.1%
- viability, T/C [7]: 90%
- viability, T/C [8]: 85.7%
- viability, T/C [9]: 101%
- viability, T/C [10]: 88.6%
- viability, T/C [11]: 80.8%
- viability, T/C [12]: 77.8%
- viability, T/C [13]: 134%
- viability, T/C [14]: 107%
- viability, T/C [15]: 136%
- viability, T/C [16]: 89.8%
- viability, T/C [17]: 93%
- viability, T/C [18]: 63.6%
- viability, T/C [19]: 124%
- viability, T/C [20]: 109%
- viability, T/C [21]: 129%
- viability, T/C [22]: 106%
- viability, T/C [23]: 118%
- viability, T/C [24]: 98%
- viability, T/C [25]: 141%
- viability, T/C [26]: 155%
- viability, T/C [27]: 148%
- viability, T/C [28]: 131%
- viability, T/C [29]: 113%
- viability, T/C [30]: 103%
